According to ChEMBL document CHEMBL4831498, “Discovery of a potent MLL1 and WDR5 protein-protein interaction inhibitor with in vivo antitumor activity” (Eur J Med Chem, 2021):
In brackets after ≈: the same amount, converted by molar mass.

Assay: Solubility of the compound at pH 7.4 by potentiometric titration method
Format: physicochemical
Conditions: buffer

Row | SMILES | solubility [µM]
1 | COC(=O)c1ccc(-c2ccc(N3CCN(C)CC3)c(NC(=O)c3cc(N)c(F)c(C)c3Cl)c2)cc1 | 3.7 (≈ 1.89 µg/mL)
2 | Cc1c(F)c(N)cc(C(=O)Nc2cc(-c3ccc(NC(=O)CCCN)cc3)ccc2N2CCN(C)CC2)c1Cl | 199 (≈ 110 µg/mL)
3 | Cc1c(F)c(N)cc(C(=O)Nc2cc(-c3ccc(NC(=O)C4CCOCC4)cc3)ccc2N2CCN(C)CC2)c1Cl | 126 (≈ 73.3 µg/mL)
4 | Cc1c(F)c(N)cc(C(=O)Nc2cc(-c3ccc(C(=O)N4CCOCC4)cc3)ccc2N2CCN(C)CC2)c1Cl | 48.2 (≈ 27.3 µg/mL)
5 | Cc1c(F)c(N)cc(C(=O)Nc2cc(-c3ccc(NC(=O)C4CCN(C)CC4)cc3)ccc2N2CCN(C)CC2)c1Cl | 3.9 (≈ 2.31 µg/mL)
6 | Cc1c(F)c(N)cc(C(=O)Nc2cc(-n3cc(C(=O)N4CCOCC4)nn3)ccc2N2CCN(C)CC2)c1Cl | 361 (≈ 201 µg/mL)
7 | Cc1c(F)c(N)cc(C(=O)Nc2cc(-n3cc(C(=O)NCCCN4CCOCC4)nn3)ccc2N2CCN(C)CC2)c1Cl | 246 (≈ 151 µg/mL)
8 | Cc1c(F)c(N)cc(C(=O)Nc2cc(-n3cc(C(=O)NC4CCOCC4)nn3)ccc2N2CCN(C)CC2)c1Cl | 95.6 (≈ 54.6 µg/mL)
9 | Cc1c(F)c(N)cc(C(=O)Nc2cc(-n3cc(C(=O)O)nn3)ccc2N2CCN(C)CC2)c1Cl | 349 (≈ 170 µg/mL)
10 | COC(=O)c1cn(-c2ccc(N3CCN(C)CC3)c(NC(=O)c3cc(N)c(F)c(C)c3Cl)c2)nn1 | 41.5 (≈ 20.8 µg/mL)
11 | Cc1c(F)c(N)cc(C(=O)Nc2cc(-n3cc(C(=O)NC4CCN(C)CC4)nn3)ccc2N2CCN(C)CC2)c1Cl | 343 (≈ 201 µg/mL)
12 | Cc1c(F)c(N)cc(C(=O)Nc2cc(-c3ccc(C(=O)O)cc3)ccc2N2CCN(C)CC2)c1Cl | 40.5 (≈ 20.1 µg/mL)
